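Briefly, cells in 96-well plates were exposed to five compound concentrations for 48 h, and endpoints were estimated by linear interpolation. TGI marks complete inhibition of growth.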
Key:
Experiment in all cases: growth of human tumour cells (NCI), 48 h
[1] = tested on: 786-0 renal
[2] = tested on: A498 renal
[3] = tested on: A549 NSCLC
[4] = tested on: ACHN renal
[5] = tested on: BT-549 breast
[6] = tested on: CAKI-1 renal
[7] = tested on: COLO 205 colon
[8] = tested on: DU-145 prostate
[9] = tested on: EKVX NSCLC
[10] = tested on: HCC-2998 colon
[11] = tested on: HCT-116 colon
[12] = tested on: HCT-15 colon
[13] = tested on: HL-60(TB) leukemia
[14] = tested on: HOP-62 NSCLC
[15] = tested on: HOP-92 NSCLC
[16] = tested on: HS 578T breast
[17] = tested on: HT29 colon
[18] = tested on: IGROV1 ovarian
[19] = tested on: K-562 leukemia
[20] = tested on: KM12 colon
[21] = tested on: LOX IMVI melanoma
[22] = tested on: M14 melanoma
[23] = tested on: MALME-3M melanoma
[24] = tested on: MCF7 breast
[25] = tested on: MDA-MB-231 breast
[26] = tested on: MDA-MB-435
[27] = tested on: MDA-N
[28] = tested on: MOLT-4 leukemia
[29] = tested on: NCI-H226 lung
[30] = tested on: NCI-H23 lung
[31] = tested on: NCI-H460 lung
[32] = tested on: OVCAR-3 ovarian
[33] = tested on: OVCAR-4 ovarian
[34] = tested on: OVCAR-5 ovarian
[35] = tested on: OVCAR-8 ovarian
[36] = tested on: PC-3 prostate
[37] = tested on: RPMI-8226 leukemia
[38] = tested on: RXF 393 renal
[39] = tested on: SF-268 CNS
[40] = tested on: SF-295 CNS
[41] = tested on: SF-539 CNS
[42] = tested on: SK-MEL-2 melanoma
[43] = tested on: SK-MEL-28 melanoma
[44] = tested on: SK-MEL-5 melanoma
[45] = tested on: SK-OV-3 ovarian
[46] = tested on: SN12C renal
[47] = tested on: SNB-19 CNS
[48] = tested on: SNB-75 CNS
[49] = tested on: SR leukemia
[50] = tested on: SW-620 colon
[51] = tested on: T-47D breast
[52] = tested on: TK-10 renal
[53] = tested on: U251 CNS
[54] = tested on: UACC-257 melanoma
[55] = tested on: UACC-62 melanoma
[56] = tested on: UO-31 renal

COC(=O)C1=C(O)C(C(=O)OC)[C@]2(O)[C@H](C(=O)OC)[C@H]1C[C@@H](c1ccc(C(F)(F)F)cc1)[C@H]2C(=O)OC (stereo partly specified)
TGI [1]: 23.4 µM | TGI [2]: 13.9 µM | TGI [3]: > 100 µM | TGI [4]: > 100 µM | TGI [5]: > 100 µM | TGI [6]: > 100 µM | TGI [7]: 11.5 µM | TGI [8]: 28.1 µM | TGI [9]: 32.4 µM | TGI [10]: 14.7 µM | TGI [11]: 5.96 µM | TGI [12]: > 100 µM | TGI [13]: 30.2 µM | TGI [14]: > 100 µM | TGI [15]: 34 µM | TGI [16]: > 100 µM | TGI [17]: 25.1 µM | TGI [18]: 29 µM | TGI [19]: > 100 µM | TGI [20]: 53.3 µM | TGI [21]: 7.3 µM | TGI [22]: 29.4 µM | TGI [23]: 22.4 µM | TGI [24]: > 100 µM | TGI [25]: > 100 µM | TGI [26]: > 100 µM | TGI [27]: 17.2 µM | TGI [28]: > 100 µM | TGI [29]: 7.36 µM | TGI [30]: 21.7 µM | TGI [31]: > 100 µM | TGI [32]: 54.1 µM | TGI [33]: > 100 µM | TGI [34]: 15 µM | TGI [35]: > 100 µM | TGI [36]: 94.6 µM | TGI [37]: > 100 µM | TGI [38]: 6.5 µM | TGI [39]: > 100 µM | TGI [40]: 48.3 µM | TGI [41]: 4 µM | TGI [42]: 15.1 µM | TGI [43]: 35.4 µM | TGI [44]: 10.9 µM | TGI [45]: > 100 µM | TGI [46]: 27.6 µM | TGI [47]: 68.9 µM | TGI [48]: 26.7 µM | TGI [49]: > 100 µM | TGI [50]: > 100 µM | TGI [51]: > 100 µM | TGI [52]: 22.5 µM | TGI [53]: 14.9 µM | TGI [54]: 23.5 µM | TGI [55]: 29 µM | TGI [56]: 8.42 µM

Reference: PubChem BioAssay (NCI)
